According to publication PMC10788937, “Chemical Catalysis Guides Structural Identification for the Major In Vivo Metabolite of the BET Inhibitor JQ1” (ACS Medicinal Chemistry Letters, 2024):

Columns and labels:
in vitro = assay: in vitro
Procedure: (§1) The samples are collected at specific time-points (0, 5, 10, 20, 40, and 60 min. The reactions are terminated by adding equivalent volume of ice-cold MeOH and vortexed. The reaction mixtures are centrifuged at rcf 15,000 for 15 min. Five μL of the supernatant will be analyzed by UHPLC-Q Exactive Orbitrap MS (Thermo Fisher Scientific, San Jose, CA) equipped with 50 mm × 4.6 mm column (XDB C-18, Agilent Technologies, Santa Clara, CA). The column temperature is maintained at 40 °C. The flow rate of is at 0.3 mL/min with a 30% mobile phase (acetonitrile containing 0.1% formic acid). Q Exactive MS is operated in positive or negative mode with electrospray ionization. Ultrapure nitrogen is applied as the sheath (45 arbitrary unit), auxiliary (10 arbitrary unit), sweep (1.0 arbitrary unit) and the collision gas. The capillary gas temperature is set at 275 °C and the capillary voltage was set at 3.7 kV. MS data were acquired from 80 to 1200 Da in […]
(§2) The Surface Plasmon Resonance (SPR) experiment was conducted using a Pioneer FE SPR System (Sartorius) equipped with a SPR HisCap Sensor
(§3) Chip. The instrument was calibrated and validated prior to the experiment according to the manufacturer's instructions. The chip surface was activated with a mixture of N-hydroxysuccinimide (NHS), 50 mM, and N-ethyl-N'-(3-dimethylaminopropyl) carbodiimide (EDC), 200 mM, at a 20 µL/min flow rate for 5. minutes. Covalent attachment of his-BRDT to channel 1 was achieved by injecting 150 µL of protein at 10 mg/mL at […]. Channel 2 of the chip was used as a blank reference and unreacted functional groups of both channels were blocked using ethanolamine.
(§4) SPR running buffer consisted of 100 mM Tris-HCl, 200 mM NaCl, and 0.05% Tween-20. […]
(§5) closely mimics the buffer conditions and injected at 40µL/min using the OneStep injection system at 0.5, 5, and 50 µM concentrations. The real-

[1] = Pharmacokinetic studies in mice (1:1 mixture, intraperitoneal); format: in vivo, mice (C57BL/6NJ); conditions: for AUC(0-t) / CL/F / half-life at 24 h: C57BL/6NJ, mouse, plasma, ip, 50 mg/kg 1:1 mixture, intraperitoneal
From the text: The observed improvement in male mice was not determined to be significant, but the gender differences are not unprecedented in human drug metabolism, as the clearance of CYP3A substrates occurs more rapidly by females than males.[35] Gender differences in hepatic CYP expression have been identified in mice, rats, and humans,[36] including a female-specific CYP3A family member in mice,[37] and circadian variations in mice can accentuate the sex differences in CYP3A isoform expression.[38] […] It is noteworthy that the relationship between AUC and half-life can be affected with no correlation due to influence on both by various factors such as target-mediated drug disposition, drug formulation, route of administration, metabolism, absorption, and elimination pathways.[39],[40] AUC0–t represents the cumulative effect, while t1/2 represents only the rate at which the drug is eliminated from the body. […]
time binding response was recorded using the instrument software and sensorgrams were analyzed using the QDAT software. The baseline subtraction, referencing, and double-referencing techniques were applied to obtain specific binding responses. Kinetic parameters were calculated by fitting sensograms to OneStep binding models for determining the dissociation rate constant (kd) for the highest concentration and constraining the lower concentrations to the determined value. All data was locally fitted to a simple 1:1 interaction model.
Pharmacokinetic studies in mice
Mouse studies were performed under protocols approved by the Institutional Animal Care and Use Committee of Baylor College of Medicine and guidelines established by the NIH Guide for the Care and Use of Laboratory Animals. Animals were housed under standard conditions of a 12-hour light/dark cycle in a vivarium with controlled ambient temperature (70˚ ± 2˚ and 20-70% relative humidity). Pharmacokinetic studies were performed using 8-12-week-old mice (C57BL/6NJ, female, n =4 and male n = 4)). Mice were administered 50 mg/kg of compounds (1:1 of mixtures of (+)-JQ1 and (+)-JQ1-D) via intraperitoneal injection to mice. Twenty µl of blood was collected via the tail vein at 0, 15, 30 minutes, 1, 2, 4, 8, and 24 hours post treatment. To 10 ul of plasma was added 25 ul of MeOH with internal standard. The resulting mixtures were vortexed and span at rcf 15,000 for 15 min and 5 ul of the supernatant were injected into the UHPLC-Q Exactive Orbitrap MS for analysis. The concentrations of tested compounds were calculated based on their corresponding standard curves. Pharmacokinetic parameters including half-time (t1/2), area under the plasma concentration–time curve during the period of observation (AUC0–t), clearance normalized by bioavailability (CL/F) were calculated on WinNonlin software (Certara, Princeton, NJ) by noncompartmental analysis.

BRD4 = conditions: read-out: BRD4 IC50; ALPHAScreen, biotin-tagged (+)-JQ1 probe
[2] = cited from earlier work
BRDT = BRDT (Homo sapiens, UniProt Q58F21); format: binding; conditions: SPR, his-BRDT; for Kd: read-out: BRDT binding Kd
Procedure: as §1, §2, §3, §4, §5

[3] = Isotopomeric ratios from the pharmacokinetic time course in mice; format: in vivo; conditions: first time point

In the case of `Cc1sc2c(c1C)C(c1ccc(Cl)cc1)=N[C@@H](CC(=O)OC(C)(C)C)c1nnc(C)n1-2` [(+)-JQ1, reference compound], the half-life at 0.2 μM (in vitro; human, microsomes) is reported as 7.9 min, the half-life at 1 h, 0.2 μM (in vitro; human, microsomes) is reported as […] and the half-life at 1 h, 0.2 μM (in vitro; mouse, microsomes) is reported as […]. It also gave an AUC(0-t) ([1]; female mice) of […], a CL/F ([1]; female mice) of […] and a half-life at 24 h ([1]; female mice) of 116 min. It also gave an AUC(0-t) ([1]; male mice) of […], a CL/F ([1]; male mice) of […] and a half-life at 24 h ([1]; male mice) of 202 min. For the same molecule, the IC50 (BRD4) was […] and the in vivo half-life [2] was “about an hour”.

For `[2H]C([2H])([2H])c1sc2c(c1C)C(c1ccc(Cl)cc1)=N[C@@H](CC(=O)OC(C)(C)C)c1nnc(C)n1-2` [(+)-JQ1-D], the half-life at 1 h, 0.2 μM (in vitro; human, microsomes) was 22.5 min, the half-life at 1 h, 0.2 μM (in vitro; mouse, microsomes) was 19.8 min and the AUC(0-t) ([1]; female mice) was […]. The CL/F ([1]; female mice) was 16.5 mL/min/kg, the half-life at 24 h ([1]; female mice) was […] and the AUC(0-t) ([1]; male mice) was 94200 ng·h/mL. The CL/F ([1]; male mice) was […], the half-life at 24 h ([1]; male mice) was […] and the “improvement of total exposure (AUC0–t) compared to (+)-JQ1” value ([1]; female mice) was 23%. The “improvement of total exposure (AUC0–t) compared to (+)-JQ1” value ([1]; male mice) was […] and the IC50 (BRD4) was […].

For `Cc1c(CF)sc2c1C(c1ccc(Cl)cc1)=N[C@@H](CC(=O)OC(C)(C)C)c1nnc(C)n1-2` [(+)-JQ1-F1], the half-life at 1 h, 0.2 μM (in vitro; human, microsomes) was 52 min, the “BRDT binding Kd” value (BRDT) was “lost potency” and the Kd (BRDT) was 722 nM.

In the case of `Cc1c(C(F)F)sc2c1C(c1ccc(Cl)cc1)=N[C@@H](CC(=O)OC(C)(C)C)c1nnc(C)n1-2` [(+)-JQ1-F2], the “Human liver microsomal t1/2” value (in vitro; 0.1 mg/mL microsomal protein) is reported as “substantially improved half-life”, the half-life at 1 h, 0.2 μM (in vitro; human, microsomes) is reported as 125 min and the “BRDT binding Kd” value (BRDT) is reported as “lost potency”. The Kd (BRDT) was 3920 nM.

With `Cc1c(CO)sc2c1C(c1ccc(Cl)cc1)=N[C@@H](CC(=O)OC(C)(C)C)c1nnc(C)n1-2` [M1] the M1/M1D ratio ([3]; female mice) was 2.095 ± 0.089 and the M1/M1D ratio ([3]; male mice) was 1.799 ± 0.043.
